Test results taken from patent US8552176B2 (priority 2010, dated 2013).
Like-named read-outs stand apart in the source and are kept apart here.

Experiments:
Assay in all cases: cells
A549 = type: cell-based, human; details: read-out: GI50 A549 lung (+p53)
NCI-H460 = type: cell-based, human; details: read-out: GI50 NCI-H460 lung
SF-268 = type: cell-based, human; details: read-out: GI50 SF-268 CNS
[1] = tested on: ten-member panel of human carcinomas; type: cell-based
MCF7 = type: cell-based, human; details: read-out: GI50 MCF7 breast
Hep3b = type: cell-based, human; details: read-out: GI50 Hep3b liver
SKOV3 = type: cell-based, human; details: read-out: GI50 SKOV3 ovary
DU-145 = type: cell-based, human; details: read-out: GI50 DU-145 prostate
HCT-15 = type: cell-based, human; details: read-out: GI50 HCT-15 colorectal
HT29 = type: cell-based, human; details: read-out: GI50 HT29 colorectal
H1299 = type: cell-based, human; details: read-out: GI50 H1299 lung (−p53)

Structure (SMILES) | GI50 (A549) [µM] | GI50 (NCI-H460) [µM] | GI50 (SF-268) [µM] | GI50 (MCF7) [µM] | GI50 (Hep3b) [µM] | GI50 (SKOV3) [µM] | GI50 (DU-145) [µM] | GI50 (HCT-15) [µM] | GI50 (HT29) [µM] | GI50 (H1299) [µM] | further results
O=C(O)CCCc1ccc(N(CCCl)CCCl)cc1 [Compound 1, Chlorambucil, reference compound] | – | – | – | – | – | – | – | – | – | – | GI50 (A549; Homo sapiens, A549, 168 h): 6.1 ± 0.3 µM; GI50 (NCI-H460; Homo sapiens, NCI-H460, 168 h): 11 ± 0.9 µM; GI50 (SF-268; Homo sapiens, SF-268, 168 h): 5.4 ± 0.1 µM; GI50 ([1]; Homo sapiens, read-out: GI50 values): 5 to 11 µM; GI50 (MCF7; Homo sapiens, MCF7, 168 h): 8.2 ± 0.2 µM; GI50 (Hep3b; Homo sapiens, Hep3B, 168 h): 5.1 ± 0.2 µM; GI50 (SKOV3; Homo sapiens, SK-OV-3, 168 h): 5.5 ± 0.4 µM; GI50 (DU-145; Homo sapiens, DU-145, 168 h): 9.4 ± 0.2 µM; GI50 (HCT-15; Homo sapiens, HCT-15, 168 h): 8.1 ± 0.1 µM; GI50 (HT29; Homo sapiens, HT-29, 168 h): 5 ± 0.3 µM; GI50 (H1299; Homo sapiens, NCI-H1299, 168 h): 4.9 ± 0.2 µM
CON(CCCCc1ccc(N(CCCl)CCCl)cc1)C1OCC(O)C(O)C1O (mixture of isomers) [Compound 53, N-Methoxy-4-(4-N′,N′-bis(2-chloroethyl)amino)phenylbutylamino-D-riboside] | 2.8 ± 0.1 | 5.9 ± 0.7 | 1.9 ± 0.1 | 1.1 ± 0.1 | 2.4 ± 0.1 | 2 ± 0.1 | 3.8 ± 0.6 | 1.8 ± 0.1 | 2.3 ± 0.1 | 3.6 ± 0.3 | GI50 ([1]; read-out: GI50): 1.8 to 5.9 µM
O=C(CCCc1ccc(N(CCCl)CCCl)cc1)NNC1OC[C@@H](O)[C@H](O)[C@H]1O (stereo partly drawn) [Compound 75, 4-(4-N′,N′-bis(2-chloroethyl)amino)phenylbutylhydrazido-D-xyloside] | 14.8 ± 0.7 | 26 ± 3 | 2.5 ± 0.1 | 4.5 ± 0.2 | 5.5 ± 0.4 | 12 ± 0.5 | 19 ± 2 | > 100 | 7.2 ± 0.1 | 3.9 ± 0.2 | –
O=C(CCCc1ccc(N(CCCl)CCCl)cc1)NN[C@@H]1O[C@H]2[C@H](OC(=O)[C@H]2O)[C@H]1O [Compound 73, 4-(4-N′,N′-bis(2-chloroethyl)amino)phenylbutylhydrazido-D-glucurono-6,3-lactonide] | 31 ± 2 | 43 ± 4 | 8.9 ± 0.4 | 9.9 ± 0.5 | 17.7 ± 0.4 | 37 ± 2 | 23 ± 2 | > 100 | 30 ± 2 | 12.9 ± 0.7 | –
CON(CCCCc1ccc(N(CCCl)CCCl)cc1)[C@H]1O[C@H](CO)[C@H](O)[C@H](O)[C@@H]1O [Compound 58] | 2.6 ± 0.1 | 5 ± 0.6 | 1.7 ± 0.1 | 1.5 ± 0.3 | 2.4 ± 0.1 | 2 ± 0.1 | 3.3 ± 0.1 | 2.2 ± 0.1 | 1.8 ± 0.4 | 3 ± 0.3 | –
CON(CCCCc1ccc(N(CCCl)CCCl)cc1)C1O[C@H](CO)[C@@H](O[C@@H]2O[C@H](CO)[C@H](O)[C@H](O)[C@H]2O)[C@H](O)[C@@H]1O (stereo partly drawn) [Compound 46] | 56 ± 1 | 57.7 ± 0.5 | 19.1 ± 0.7 | 26 ± 2 | 38 ± 2 | 35 ± 1 | 43 ± 3 | 31 ± 1 | 34 ± 3 | 24 ± 1 | –
O[C@@H]1[C@H](O)COC(N(O)CCCCc2ccc(N(CCCl)CCCl)cc2)[C@@H]1O (stereo partly drawn) [Compound 68, N-Hydroxy-4-(4-N′,N′-bis(2-chloroethyl)amino)phenylbutylamino-D-riboside] | 0.84 ± 0.05 | 1.04 ± 0.06 | 1.5 ± 0.1 | 3.2 ± 0.2 | > 5 | 0.89 ± 0.04 | > 5 | 0.87 ± 0.05 | 0.9 ± 0.05 | 1.6 ± 0.2 | –
O=C(CCCc1ccc(N(CCCl)CCCl)cc1)NN=CC(O)C(O)CO (mixture of isomers) [Compound 74, 4-(4-N′,N′-bis(2-chloroethyl)amino)phenylbutylhydrazido-D-threoside inline] | 7.5 ± 0.5 | 10.8 ± 0.8 | 2.6 ± 0.2 | 4.2 ± 0.2 | 4.1 ± 0.4 | 6.2 ± 0.6 | 9.5 ± 0.7 | 7.3 ± 0.4 | 4.8 ± 0.1 | 2.6 ± 0.2 | –
CON(CCCCc1ccc(N(CCCl)CCCl)cc1)C1OC(CO)C(O)C(O)C1O (mixture of isomers) [Compound 24] | 4.8 ± 0.4 | 10.4 ± 0.7 | 2 ± 0.4 | 1.3 ± 0.1 | 3.8 ± 0.3 | 4.1 ± 0.6 | 5.5 ± 0.2 | 2.3 ± 0.3 | 3.7 ± 0.5 | 1.4 ± 0.1 | –
CON(CCCCc1ccc(N(CCCl)CCCl)cc1)C1OC(C)C(O)C(O)C1O (mixture of isomers) [Compound 51] | 2.5 ± 0.1 | 5.3 ± 0.4 | 1.9 ± 0.1 | 2.2 ± 0.2 | 2.6 ± 0.1 | 2 ± 0.1 | 4.2 ± 0.1 | 2 ± 0.1 | 2.4 ± 0.1 | 3.7 ± 0.3 | –
CON(CCCCc1ccc(N(CCCl)CCCl)cc1)C1OC(CO)C(O)C(O)C1O (mixture of isomers) [Compound 10] | 3.4 | 9.5 ± 0.7 | 3.1 ± 0.1 | 9.3 ± 0.7 | 4.4 ± 0.3 | 3 ± 0.1 | 5.8 ± 0.1 | 0.97 ± 0.07 | 0.6 ± 0.9 | 0.53 ± 0.05 | –
C[C@H]1O[C@@H](NNC(=O)CCCc2ccc(N(CCCl)CCCl)cc2)[C@H](O)[C@@H](O)[C@H]1O [Compound 72, 4-(4-N′,N′-bis(2-chloroethyl)amino)phenylbutylhydrazido-β-D-fucoside] | 28 ± 1 | 51 ± 2 | 5.8 ± 0.1 | 6.3 ± 0.2 | 11 ± 0.3 | 22 ± 1 | 24 ± 2 | > 100 | 16.7 ± 0.7 | 8.7 ± 0.3 | –
CON(CCCCc1ccc(N(CCCl)CCCl)cc1)C1OCC(O)C(O)C1O (mixture of isomers) [Compound 14] | 2 ± 0.1 | 5 ± 0.4 | 1.8 ± 0.1 | 4.6 ± 0.1 | 1.6 ± 0.1 | 2 ± 0.1 | 3.3 ± 0.1 | 0.9 ± 0.04 | 1.5 ± 0.2 | 0.73 ± 0.03 | –
